Measurements reported in article doi:10.1101/2023.10.20.563248v1 (biorxiv, 2023).

What was measured:
Details in all cases: 1 µM; inhibitor
JNK2 = JNK2 (Homo sapiens, UniProt P45984)
EPHA1 = EPHA1 (Homo sapiens, UniProt P21709)
NEK11 = NEK11 (Homo sapiens, UniProt Q8NG66)
MAP3K11 = MAP3K11 (Homo sapiens, UniProt Q16584)
MINK1 = MINK1 (Homo sapiens, UniProt Q8N4C8)
TRKB = TRKB (Homo sapiens, UniProt Q16620)
NEK6 = NEK6 (Homo sapiens, UniProt Q9HC98)
IGF1R = IGF1R (Homo sapiens, UniProt P08069)
RPS6KA6 = RPS6KA6 (Homo sapiens, UniProt Q9UK32)
RPS6KA6, sequence (Q9UK32 whole entry): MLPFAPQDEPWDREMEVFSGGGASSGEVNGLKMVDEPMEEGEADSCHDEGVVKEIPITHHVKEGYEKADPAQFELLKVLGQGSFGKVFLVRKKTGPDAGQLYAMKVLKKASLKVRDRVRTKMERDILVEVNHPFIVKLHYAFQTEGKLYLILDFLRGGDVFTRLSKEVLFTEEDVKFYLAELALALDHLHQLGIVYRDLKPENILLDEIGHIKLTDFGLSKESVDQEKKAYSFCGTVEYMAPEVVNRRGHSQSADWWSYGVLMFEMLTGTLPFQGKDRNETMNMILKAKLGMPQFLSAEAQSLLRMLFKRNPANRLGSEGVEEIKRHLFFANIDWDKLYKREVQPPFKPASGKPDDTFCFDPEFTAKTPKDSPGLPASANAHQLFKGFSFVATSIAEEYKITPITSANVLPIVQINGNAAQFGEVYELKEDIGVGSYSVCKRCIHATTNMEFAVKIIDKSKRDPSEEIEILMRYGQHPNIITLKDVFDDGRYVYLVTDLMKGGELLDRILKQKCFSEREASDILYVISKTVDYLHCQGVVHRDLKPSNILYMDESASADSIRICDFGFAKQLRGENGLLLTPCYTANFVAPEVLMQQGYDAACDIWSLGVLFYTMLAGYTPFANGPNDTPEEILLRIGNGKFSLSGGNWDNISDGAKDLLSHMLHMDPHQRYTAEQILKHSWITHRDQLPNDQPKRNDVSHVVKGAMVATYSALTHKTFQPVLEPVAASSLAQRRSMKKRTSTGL

p38a = p38a (Homo sapiens, UniProt Q16539)
CDK3/CycC = CDK3/CycC (Homo sapiens, UniProt Q00526)
AurA = AurA (Homo sapiens, UniProt O14965)
PRKG2 = PRKG2 (Homo sapiens, UniProt Q13237)
PRKG2, sequence (Q13237 whole entry): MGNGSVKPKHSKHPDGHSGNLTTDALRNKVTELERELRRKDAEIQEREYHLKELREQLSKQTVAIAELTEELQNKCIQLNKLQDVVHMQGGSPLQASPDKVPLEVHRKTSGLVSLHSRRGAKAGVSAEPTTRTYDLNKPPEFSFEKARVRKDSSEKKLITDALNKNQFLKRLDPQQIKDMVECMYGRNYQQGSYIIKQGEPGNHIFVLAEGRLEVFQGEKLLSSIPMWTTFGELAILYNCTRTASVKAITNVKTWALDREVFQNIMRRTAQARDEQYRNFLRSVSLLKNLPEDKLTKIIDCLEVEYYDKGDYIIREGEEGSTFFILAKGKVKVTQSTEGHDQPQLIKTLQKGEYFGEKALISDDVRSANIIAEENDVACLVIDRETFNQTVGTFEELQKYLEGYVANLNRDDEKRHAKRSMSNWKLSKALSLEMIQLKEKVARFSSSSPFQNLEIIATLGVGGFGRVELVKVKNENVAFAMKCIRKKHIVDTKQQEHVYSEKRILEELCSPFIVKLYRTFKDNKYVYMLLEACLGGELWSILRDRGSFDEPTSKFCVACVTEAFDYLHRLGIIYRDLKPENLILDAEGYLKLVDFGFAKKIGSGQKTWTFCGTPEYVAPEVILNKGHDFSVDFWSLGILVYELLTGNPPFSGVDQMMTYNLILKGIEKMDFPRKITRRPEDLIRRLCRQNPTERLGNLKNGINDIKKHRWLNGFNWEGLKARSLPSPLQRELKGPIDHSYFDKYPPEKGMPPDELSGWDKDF

RON = RON (Homo sapiens, UniProt Q04912)
MAP4K4 = MAP4K4 (Homo sapiens, UniProt O95819)
TRKC = TRKC (Homo sapiens, UniProt Q16288)
TRKC, sequence (Q16288 whole entry): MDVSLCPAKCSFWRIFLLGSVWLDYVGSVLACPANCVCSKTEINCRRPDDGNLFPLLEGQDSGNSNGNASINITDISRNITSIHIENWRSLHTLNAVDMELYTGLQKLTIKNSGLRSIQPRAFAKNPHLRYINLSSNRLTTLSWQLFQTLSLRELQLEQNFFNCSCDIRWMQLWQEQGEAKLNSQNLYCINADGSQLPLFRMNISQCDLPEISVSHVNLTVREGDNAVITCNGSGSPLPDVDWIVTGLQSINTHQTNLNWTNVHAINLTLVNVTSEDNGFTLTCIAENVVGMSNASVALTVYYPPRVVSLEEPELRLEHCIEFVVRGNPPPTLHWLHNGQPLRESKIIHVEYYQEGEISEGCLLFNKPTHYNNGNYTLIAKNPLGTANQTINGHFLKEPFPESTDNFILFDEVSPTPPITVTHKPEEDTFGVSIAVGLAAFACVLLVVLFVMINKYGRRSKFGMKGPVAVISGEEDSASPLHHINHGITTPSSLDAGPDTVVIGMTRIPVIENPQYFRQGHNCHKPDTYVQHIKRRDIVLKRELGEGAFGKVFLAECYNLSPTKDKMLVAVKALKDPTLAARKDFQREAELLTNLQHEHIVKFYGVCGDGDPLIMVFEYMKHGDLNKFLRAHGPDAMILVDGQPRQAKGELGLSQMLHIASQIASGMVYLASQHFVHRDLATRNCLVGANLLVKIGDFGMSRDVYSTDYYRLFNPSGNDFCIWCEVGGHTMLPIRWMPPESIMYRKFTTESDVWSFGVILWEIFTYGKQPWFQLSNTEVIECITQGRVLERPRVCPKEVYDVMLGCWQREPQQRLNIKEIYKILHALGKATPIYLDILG

CDK20 = CDK20 (Homo sapiens, UniProt Q8IZL9)
RIPK4 = RIPK4 (Homo sapiens, UniProt P57078)
PASK = PASK (Homo sapiens, UniProt Q96RG2)
PASK, sequence (Q96RG2 whole entry): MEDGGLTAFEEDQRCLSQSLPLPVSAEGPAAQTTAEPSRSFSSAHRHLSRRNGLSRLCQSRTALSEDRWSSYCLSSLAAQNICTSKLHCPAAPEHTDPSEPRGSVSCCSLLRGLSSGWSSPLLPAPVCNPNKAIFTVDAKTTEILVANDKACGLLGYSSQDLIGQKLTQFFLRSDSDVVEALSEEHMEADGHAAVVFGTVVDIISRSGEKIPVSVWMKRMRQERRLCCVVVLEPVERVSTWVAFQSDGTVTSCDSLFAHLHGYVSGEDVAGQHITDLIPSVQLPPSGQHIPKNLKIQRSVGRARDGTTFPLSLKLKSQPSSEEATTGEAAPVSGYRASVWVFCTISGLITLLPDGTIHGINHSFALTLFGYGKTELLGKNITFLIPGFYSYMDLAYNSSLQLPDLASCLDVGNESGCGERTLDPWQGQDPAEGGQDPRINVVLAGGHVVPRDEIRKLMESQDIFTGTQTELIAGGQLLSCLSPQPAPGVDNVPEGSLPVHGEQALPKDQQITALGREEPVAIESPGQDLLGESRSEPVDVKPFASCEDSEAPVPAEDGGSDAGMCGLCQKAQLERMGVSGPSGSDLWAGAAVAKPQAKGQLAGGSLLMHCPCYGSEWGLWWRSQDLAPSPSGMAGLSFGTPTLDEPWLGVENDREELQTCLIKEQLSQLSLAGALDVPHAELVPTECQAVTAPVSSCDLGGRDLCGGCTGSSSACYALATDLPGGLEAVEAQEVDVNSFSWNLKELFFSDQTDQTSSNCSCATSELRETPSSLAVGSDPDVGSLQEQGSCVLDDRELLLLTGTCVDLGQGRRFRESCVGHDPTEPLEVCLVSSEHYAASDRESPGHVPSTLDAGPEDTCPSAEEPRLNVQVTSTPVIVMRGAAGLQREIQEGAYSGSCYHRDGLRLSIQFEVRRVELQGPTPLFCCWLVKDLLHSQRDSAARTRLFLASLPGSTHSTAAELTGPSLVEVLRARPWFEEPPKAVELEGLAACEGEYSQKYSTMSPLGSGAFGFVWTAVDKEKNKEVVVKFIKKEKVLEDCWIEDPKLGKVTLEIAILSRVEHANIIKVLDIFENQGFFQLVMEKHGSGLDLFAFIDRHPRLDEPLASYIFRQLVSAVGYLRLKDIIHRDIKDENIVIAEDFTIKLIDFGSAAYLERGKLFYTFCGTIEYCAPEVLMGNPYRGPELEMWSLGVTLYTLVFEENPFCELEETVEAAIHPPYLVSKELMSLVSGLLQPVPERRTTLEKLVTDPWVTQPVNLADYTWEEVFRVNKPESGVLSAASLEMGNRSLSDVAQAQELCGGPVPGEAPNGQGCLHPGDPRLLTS

CDK6/CycD2 = CDK6/CycD2 (Homo sapiens, UniProt Q00534)
MELK = MELK (Homo sapiens, UniProt Q14680)
NDR1 = NDR1 (Homo sapiens, UniProt Q15208)
MEK1 = MEK1 (Homo sapiens, UniProt Q02750)
MEK1, sequence (Q02750 whole entry): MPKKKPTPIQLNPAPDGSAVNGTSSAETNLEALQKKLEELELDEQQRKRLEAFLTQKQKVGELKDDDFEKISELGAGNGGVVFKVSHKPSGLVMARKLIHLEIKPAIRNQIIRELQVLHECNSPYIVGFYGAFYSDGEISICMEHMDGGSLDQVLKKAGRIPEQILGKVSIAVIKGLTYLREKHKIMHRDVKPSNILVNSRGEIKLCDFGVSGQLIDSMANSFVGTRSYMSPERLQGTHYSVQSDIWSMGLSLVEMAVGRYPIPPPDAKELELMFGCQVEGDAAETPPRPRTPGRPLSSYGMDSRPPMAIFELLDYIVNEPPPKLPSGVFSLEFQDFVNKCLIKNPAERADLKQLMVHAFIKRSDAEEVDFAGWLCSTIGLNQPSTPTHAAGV

MST2 = MST2 (Homo sapiens, UniProt Q13188)
TLK1 = TLK1 (Homo sapiens, UniProt Q9UKI8)
PDGFRa = PDGFRa (Homo sapiens, UniProt P16234)
EPHA7 = EPHA7 (Homo sapiens, UniProt Q15375)
EPHA7, sequence (Q15375 whole entry): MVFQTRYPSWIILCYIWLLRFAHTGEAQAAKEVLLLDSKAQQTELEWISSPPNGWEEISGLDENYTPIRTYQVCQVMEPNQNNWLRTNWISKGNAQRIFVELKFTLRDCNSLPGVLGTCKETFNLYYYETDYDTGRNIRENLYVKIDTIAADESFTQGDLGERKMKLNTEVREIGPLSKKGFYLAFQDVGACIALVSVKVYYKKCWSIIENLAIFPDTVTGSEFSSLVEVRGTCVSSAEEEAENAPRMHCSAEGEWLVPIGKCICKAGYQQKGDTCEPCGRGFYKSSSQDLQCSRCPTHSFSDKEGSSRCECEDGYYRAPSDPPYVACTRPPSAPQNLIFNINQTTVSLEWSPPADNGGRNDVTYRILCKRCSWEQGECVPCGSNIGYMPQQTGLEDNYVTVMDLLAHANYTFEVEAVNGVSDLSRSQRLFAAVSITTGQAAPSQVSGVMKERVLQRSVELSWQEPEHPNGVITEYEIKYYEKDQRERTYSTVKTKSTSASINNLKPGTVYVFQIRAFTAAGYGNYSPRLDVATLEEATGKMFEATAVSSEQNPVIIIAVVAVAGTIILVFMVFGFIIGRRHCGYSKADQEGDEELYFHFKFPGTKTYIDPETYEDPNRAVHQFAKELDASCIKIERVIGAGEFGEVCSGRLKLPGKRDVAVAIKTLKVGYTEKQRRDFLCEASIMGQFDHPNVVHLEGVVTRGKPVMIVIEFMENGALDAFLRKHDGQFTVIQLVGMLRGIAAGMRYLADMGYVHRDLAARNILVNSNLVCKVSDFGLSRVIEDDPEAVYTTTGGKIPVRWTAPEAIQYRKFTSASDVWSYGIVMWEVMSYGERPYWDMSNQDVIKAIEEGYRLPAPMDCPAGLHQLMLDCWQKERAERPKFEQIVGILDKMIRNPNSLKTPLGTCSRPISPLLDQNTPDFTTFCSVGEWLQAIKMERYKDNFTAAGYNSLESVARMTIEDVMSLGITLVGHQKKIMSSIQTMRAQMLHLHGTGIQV

MET = MET (Homo sapiens, UniProt P08581)
MAPKAPK5 = MAPKAPK5 (Homo sapiens, UniProt Q8IW41)
INSRR = INSRR (Homo sapiens, UniProt P14616)
SNARK = SNARK (Homo sapiens, UniProt Q9H093)

21c Remaining activity, percent of control [%] (JNK2): 84.0% | 21c Remaining activity, percent of control [%] (EPHA1): 99.3% | 21c Remaining activity, percent of control [%] (NEK11): 93.3% | 21c Remaining activity, percent of control [%] (MAP3K11): 45.8% | 21c Remaining activity, percent of control [%] (MINK1): 70.0% | 21c Remaining activity, percent of control [%] (TRKB): 79.0% | 21c Remaining activity, percent of control [%] (NEK6): 89.5% | 21c Remaining activity, percent of control [%] (IGF1R): 102.9% | 21c Remaining activity, percent of control [%] (RPS6KA6): 73.5% | 21c Remaining activity, percent of control [%] (p38a): 92.7% | 21c Remaining activity, percent of control [%] (CDK3/CycC): 87.0% | 21c Remaining activity, percent of control [%] (AurA): 83.6% | 21c Remaining activity, percent of control [%] (PRKG2): 93.5% | 21c Remaining activity, percent of control [%] (RON): 94.5% | 21c Remaining activity, percent of control [%] (MAP4K4): 81.0% | 21c Remaining activity, percent of control [%] (TRKC): 102.0% | 21c Remaining activity, percent of control [%] (CDK20): 84.4% | 21c Remaining activity, percent of control [%] (RIPK4): 101.1% | 21c Remaining activity, percent of control [%] (PASK): 100.8% | 21c Remaining activity, percent of control [%] (CDK6/CycD2): 85.8% | 21c Remaining activity, percent of control [%] (MELK): 47.0% | 21c Remaining activity, percent of control [%] (NDR1): 86.7% | 21c Remaining activity, percent of control [%] (MEK1): 118.7% | 21c Remaining activity, percent of control [%] (MST2): 95.6% | 21c Remaining activity, percent of control [%] (TLK1): 92.4% | 21c Remaining activity, percent of control [%] (PDGFRa): 102.0% | 21c Remaining activity, percent of control [%] (EPHA7): 103.7% | 21c Remaining activity, percent of control [%] (MET): 107.2% | 21c Remaining activity, percent of control [%] (MAPKAPK5): 110.4% | 21c Remaining activity, percent of control [%] (INSRR): 96.5% | 21c Remaining activity, percent of control [%] (SNARK): 95.6%
SMILES: O=C1NCCCCCNc2nc(c3ccccc3n2)Nc2cc1[nH]n2 [21c, (Z)-3^1H-2,5,11-triaza-1(4,2)-quinazolina-3(3,5)-pyrazolacycloundecaphan-4-one]
